Reference: PubChem BioAssay AID330 (DTP/NCI, 2004)
Several values for one entry are separate records, joined by “and”; a condition that tells them apart may be missing. Equal entries are not always repeated. Toxic doses and inconclusive results are not listed. The calls were made as follows: active = survival T/C of 150% or more; inactive = T/C below 125% in these data.

System: P388 leukemia ip, CD2F1 mice, survival T/C
Assay: NCI In Vivo Anticancer Drug Screen. Data for tumor model P388 Leukemia (intraperitoneal) in CD2F1 (CDF1) mice
Settings: endpoint: median survival time, higher = longer survival
How it was run: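 Mice carrying the transplanted tumor received test compound or vehicle. Survival was recorded in each group, and the value is the treated-group measurement divided by that of the vehicle-treated control group.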

[1] = dose: 100.0 mg/kg/injection, schedule: Q01DX001 (ip), vehicle: Klucel (hydroxypropylcellulose) (HPC)
[2] = dose: 200.0 mg/kg/injection, schedule: Q01DX001 (ip), vehicle: Klucel (hydroxypropylcellulose) (HPC)
[3] = dose: 50.0 mg/kg/injection, schedule: Q01DX005 (ip), vehicle: Klucel (hydroxypropylcellulose) (HPC)
[4] = dose: 100.0 mg/kg/injection, schedule: Q01DX005 (ip), vehicle: Klucel (hydroxypropylcellulose) (HPC)
[5] = dose: 200.0 mg/kg/injection, schedule: Q01DX005 (ip), vehicle: Klucel (hydroxypropylcellulose) (HPC)
[6] = dose: 50.0 mg/kg/injection, schedule: Q01DX009 (ip), vehicle: saline
[7] = dose: 100.0 mg/kg/injection, schedule: Q01DX009 (ip), vehicle: saline
[8] = dose: 200.0 mg/kg/injection, schedule: Q01DX009 (ip), vehicle: saline
[9] = dose: 50.0 mg/kg/injection, schedule: Q01DX009 (ip), vehicle: saline with Tween-80
[10] = dose: 100.0 mg/kg/injection, schedule: Q01DX009 (ip), vehicle: saline with Tween-80
[11] = dose: 200.0 mg/kg/injection, schedule: Q01DX009 (ip), vehicle: saline with Tween-80
[12] = dose: 60.0 mg/kg/injection, schedule: Q01DX005 (ip), vehicle: saline with Tween-80
[13] = dose: 120.0 mg/kg/injection, schedule: Q01DX005 (ip), vehicle: saline with Tween-80
[14] = dose: 240.0 mg/kg/injection, schedule: Q01DX005 (ip), vehicle: saline with Tween-80
[15] = dose: 25.0 mg/kg/injection, schedule: Q01DX009 (ip), vehicle: Klucel (hydroxypropylcellulose) (HPC)
[16] = dose: 25.0 mg/kg/injection, schedule: Q01DX009 (ip), vehicle: saline with Tween-80
[17] = dose: 50.0 mg/kg/injection, schedule: Q01DX009 (ip), vehicle: Klucel (hydroxypropylcellulose) (HPC)
[18] = dose: 100.0 mg/kg/injection, schedule: Q01DX009 (ip), vehicle: Klucel (hydroxypropylcellulose) (HPC)
[19] = dose: 200.0 mg/kg/injection, schedule: Q01DX009 (ip), vehicle: Klucel (hydroxypropylcellulose) (HPC)

Measured: T/C

c1ccc(CN2CO[C@@H]3CCCCC[C@H]32)cc1
inactive: [1] 101 % of control | dose: 100.0 mg/kg/injection, schedule: Q04DX002 (ip), vehicle: Klucel (hydroxypropylcellulose) (HPC) 99 % of control | [2] 102 % of control | dose: 200.0 mg/kg/injection, schedule: Q04DX002 (ip), vehicle: Klucel (hydroxypropylcellulose) (HPC) 115 % of control | dose: 400.0 mg/kg/injection, schedule: Q01DX001 (ip), vehicle: Klucel (hydroxypropylcellulose) (HPC) 98 % of control | dose: 400.0 mg/kg/injection, schedule: Q04DX002 (ip), vehicle: Klucel (hydroxypropylcellulose) (HPC) 124 % of control

O=C1C=C(NCCNCCO)C(=O)c2ccccc21
inactive: dose: 6.25 mg/kg/injection, schedule: Q01DX009 (ip), vehicle: distilled water + Tween-80 96 % of control | dose: 12.5 mg/kg/injection, schedule: Q01DX009 (ip), vehicle: distilled water + Tween-80 98 % of control and 95 % of control | dose: 25.0 mg/kg/injection, schedule: Q01DX009 (ip), vehicle: distilled water + Tween-80 109 % of control and 95 % of control | dose: 50.0 mg/kg/injection, schedule: Q01DX009 (ip), vehicle: distilled water + Tween-80 111 % of control and 94 % of control | dose: 100.0 mg/kg/injection, schedule: Q01DX009 (ip), vehicle: distilled water + Tween-80 88 % of control and 97 % of control

O=C(O)CCCNS(=O)(=O)c1ccc(S(=O)(=O)NCCCC(=O)O)cc1
inactive: [3] 99 % of control | [4] 103 % of control | [5] 103 % of control

C=C1C(=O)OC2/C=C(\C)C(OC(C)=O)C3OC3C(C)(O)CC(OC(=O)/C(C)=C/C)C12 (centres undefined)
inactive: dose: 10.0 mg/kg/injection, schedule: Q01DX009 (ip), vehicle: saline with Tween-80 99 % of control | dose: 20.0 mg/kg/injection, schedule: Q01DX009 (ip), vehicle: saline with Tween-80 104 % of control | dose: 40.0 mg/kg/injection, schedule: Q01DX009 (ip), vehicle: saline with Tween-80 107 % of control

N#C/C(=C\c1ccccn1)c1nc(-c2ccc(Cl)cc2)cs1
inactive: [6] 102 % of control | [7] 92 % of control | [8] 92 % of control

C1CCC(N2CSC3CCCCC32)CC1 (centres undefined)
inactive: dose: 60.0 mg/kg/injection, schedule: Q01DX005 (ip), vehicle: Klucel (hydroxypropylcellulose) (HPC) 95 % of control | dose: 120.0 mg/kg/injection, schedule: Q01DX005 (ip), vehicle: Klucel (hydroxypropylcellulose) (HPC) 97 % of control

c1cc2c(c(NC3=NCCCO3)c1)CCCC2
inactive: dose: 12.5 mg/kg/injection, schedule: Q04DX003 (ip), vehicle: saline with Tween-80 108 % of control | dose: 25.0 mg/kg/injection, schedule: Q04DX003 (ip), vehicle: saline with Tween-80 108 % of control | dose: 50.0 mg/kg/injection, schedule: Q04DX003 (ip), vehicle: saline with Tween-80 100 % of control

Cc1nnc2n1N=C1CC(C)(C)CC(=O)C1S2 (centres undefined)
inactive: [9] 101 % of control | [10] 102 % of control | [11] 94 % of control

CC(CC(N)=O)Cc1ccccc1 (centres undefined)
inactive: dose: 100.0 mg/kg/injection, schedule: Q01DX001 (ip), vehicle: saline with Tween-80 104 % of control | dose: 200.0 mg/kg/injection, schedule: Q01DX001 (ip), vehicle: saline with Tween-80 103 % of control | dose: 400.0 mg/kg/injection, schedule: Q01DX001 (ip), vehicle: saline with Tween-80 104 % of control

CC1(C)CCc2c(cc3c(c2O)CCC(C)(C)O3)O1
inactive: [12] 109 % of control | [13] 117 % of control | [14] 100 % of control

Cc1cc(N=Cc2cccs2)cc(Cl)c1O
inactive: dose: 100.0 mg/kg/injection, schedule: Q04DX003 (ip), vehicle: saline 101 % of control | dose: 200.0 mg/kg/injection, schedule: Q04DX003 (ip), vehicle: saline 99 % of control | dose: 400.0 mg/kg/injection, schedule: Q04DX003 (ip), vehicle: saline 98 % of control

CC(C)NC(=O)OCc1c(COC(=O)NC(C)C)c2cccn2c2c1cnn2-c1ccccc1
inactive: dose: 30.0 mg/kg/injection, schedule: Q01DX005 (ip), vehicle: saline with Tween-80 87 % of control | [12] 89 % of control | [13] 89 % of control and 91 % of control | [14] 96 % of control

CN(C)CC1CCc2c(ccc3ccccc23)C1=O (centres undefined)
inactive: dose: 12.5 mg/kg/injection, schedule: Q01DX005 (ip), vehicle: saline with Tween-80 100 % of control | dose: 25.0 mg/kg/injection, schedule: Q01DX005 (ip), vehicle: saline with Tween-80 103 % of control | dose: 50.0 mg/kg/injection, schedule: Q01DX005 (ip), vehicle: saline with Tween-80 100 % of control | dose: 100.0 mg/kg/injection, schedule: Q01DX005 (ip), vehicle: saline with Tween-80 104 % of control

CC(C)(C)/[N+]([O-])=C/C=C\C=C\C=O
inactive: dose: 50.0 mg/kg/injection, schedule: Q01DX001 (ip), vehicle: Klucel (hydroxypropylcellulose) (HPC) 116 % of control | [1] 120 % of control | [2] 122 % of control

Cc1ccc(OP2(=O)NC3CCCCC3N2)cc1 (centres undefined)
inactive: [3] 99 % of control | [4] 93 % of control | [5] 96 % of control

OC1(c2ccccc2)c2cccc(Cl)c2C(O)(c2ccccc2)c2c(Cl)cccc21 (centres undefined)
inactive: [9] 99 % of control | [10] 99 % of control | [11] 97 % of control

O=C1OC2(C=C1Br)CCC21C=C(Br)C(=O)O1 (centres undefined)
inactive: [15] 98 % of control

O=C1/C(=C/c2cccnc2)CCc2ccccc21
inactive: [16] 104 % of control | [17] 116 % of control | [9] 108 % of control | [18] 102 % of control | [10] 105 % of control | [19] 109 % of control | [11] 95 % of control

C=C1C(=O)OC2CC3(C)OC(=CC3=O)/C(C)=C\C(OC(=O)C3(C)OC3C)C12 (centres undefined)
inactive: dose: 1.56 mg/kg/injection, schedule: Q01DX005 (ip), vehicle: distilled water + Tween-80 105 % of control | dose: 3.12 mg/kg/injection, schedule: Q01DX005 (ip), vehicle: distilled water + Tween-80 99 % of control | dose: 6.25 mg/kg/injection, schedule: Q01DX005 (ip), vehicle: distilled water + Tween-80 96 % of control | dose: 12.5 mg/kg/injection, schedule: Q01DX005 (ip), vehicle: distilled water + Tween-80 101 % of control

O=[N+]([O-])c1ccc(/C=C/C=C/c2ccc(S(=O)(=O)F)cc2)c(Cl)c1
inactive: [17] 93 % of control | [18] 93 % of control | [19] 97 % of control

CCCCCCCCCCCCCCCCCc1cccc(O)c1
inactive: dose: 12.5 mg/kg/injection, schedule: Q01DX009 (ip), vehicle: Klucel (hydroxypropylcellulose) (HPC) 114 % of control | [15] 103 % of control | [17] 114 % of control

CCCCCCC(/C=C/c1ccc(Cl)c(Cl)c1)=N\Nc1ccc(Cl)cc1Cl
inactive: dose: 12.5 mg/kg/injection, schedule: Q01DX009 (ip), vehicle: saline with Tween-80 94 % of control | [16] 94 % of control | [10] 88 % of control | [11] 87 % of control

CC1=[N+]([O-])[N+]([O-])=C(c2ccccc2)C1=O
inactive: [16] 107 % of control | [9] 92 % of control | [10] 107 % of control

CC1(C)OC(CC(=O)O)C23COC(C(=O)C4(C)C2CCC2(C)C(C5CCOC5)OC(=O)C5OC524)C13 (centres undefined)
inactive: dose: 0.5 mg/kg/injection, schedule: Q01DX009 (ip), vehicle: saline + alcohol 103 % of control | dose: 1.0 mg/kg/injection, schedule: Q01DX009 (ip), vehicle: saline + alcohol 101 % of control | dose: 2.0 mg/kg/injection, schedule: Q01DX009 (ip), vehicle: saline + alcohol 100 % of control | dose: 4.0 mg/kg/injection, schedule: Q01DX009 (ip), vehicle: saline + alcohol 103 % of control

NCc1ccc(O)c(O)c1O
inactive: [6] 121 % of control and 123 % of control | [7] 118 % of control and 120 % of control | [8] 124 % of control and 88 % of control

C[Si](C)(Cn1ccc(=O)n(C[Si](C)(C)c2ccccc2)c1=O)c1ccccc1
inactive: dose: 81.0 mg/kg/injection, schedule: Q04DX002 (ip), vehicle: saline with Tween-80 100 % of control | dose: 162.0 mg/kg/injection, schedule: Q04DX002 (ip), vehicle: saline with Tween-80 104 % of control | dose: 324.0 mg/kg/injection, schedule: Q04DX002 (ip), vehicle: saline with Tween-80 106 % of control
